In PubChem BioAssay (NCI):
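Following 48 hours of exposure in 96-well plates, responses at five concentrations were used to interpolate endpoints linearly. GI50 = concentration required for 50% inhibition of growth. TGI denotes the concentration required for complete inhibition of growth.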

Assays:
Test in all cases: NCI anticancer screen, dose series, 48 h
SK-MEL-2 melanoma = system: SK-MEL-2 melanoma
SW-620 colon = system: SW-620 colon
SN12C renal = system: SN12C renal
HL-60(TB) leukemia = system: HL-60(TB) leukemia
OVCAR-4 ovarian = system: OVCAR-4 ovarian
DU-145 prostate = system: DU-145 prostate
CCRF-CEM leukemia = system: CCRF-CEM leukemia
HCT-116 colon = system: HCT-116 colon
RXF 393 renal = system: RXF 393 renal
SF-295 CNS = system: SF-295 CNS
COLO 205 colon = system: COLO 205 colon
SNB-75 CNS = system: SNB-75 CNS
A549 NSCLC = system: A549 NSCLC
SR leukemia = system: SR leukemia
T-47D breast = system: T-47D breast
M14 melanoma = system: M14 melanoma
SF-539 CNS = system: SF-539 CNS
U251 CNS = system: U251 CNS
786-0 renal = system: 786-0 renal
A498 renal = system: A498 renal
OVCAR-3 ovarian = system: OVCAR-3 ovarian
SK-MEL-5 melanoma = system: SK-MEL-5 melanoma
LOX IMVI melanoma = system: LOX IMVI melanoma
K-562 leukemia = system: K-562 leukemia
NCI-H522 lung = system: NCI-H522 lung
BT-549 breast = system: BT-549 breast
SK-OV-3 ovarian = system: SK-OV-3 ovarian
PC-3 prostate = system: PC-3 prostate
UO-31 renal = system: UO-31 renal
SF-268 CNS = system: SF-268 CNS
MDA-MB-435 = system: MDA-MB-435
HOP-92 NSCLC = system: HOP-92 NSCLC
TK-10 renal = system: TK-10 renal
UACC-62 melanoma = system: UACC-62 melanoma
OVCAR-5 ovarian = system: OVCAR-5 ovarian
KM12 colon = system: KM12 colon
IGROV1 ovarian = system: IGROV1 ovarian
NCI-H23 lung = system: NCI-H23 lung
HS 578T breast = system: HS 578T breast
HCT-15 colon = system: HCT-15 colon
MDA-MB-231 breast = system: MDA-MB-231 breast
MALME-3M melanoma = system: MALME-3M melanoma
MOLT-4 leukemia = system: MOLT-4 leukemia
MCF7 breast = system: MCF7 breast
NCI-H226 lung = system: NCI-H226 lung
CAKI-1 renal = system: CAKI-1 renal
HT29 colon = system: HT29 colon
SNB-19 CNS = system: SNB-19 CNS
SK-MEL-28 melanoma = system: SK-MEL-28 melanoma
OVCAR-8 ovarian = system: OVCAR-8 ovarian
HCC-2998 colon = system: HCC-2998 colon
RPMI-8226 leukemia = system: RPMI-8226 leukemia
NCI-H460 lung = system: NCI-H460 lung
EKVX NSCLC = system: EKVX NSCLC
NCI/ADR-RES ovarian = system: NCI/ADR-RES ovarian
UACC-257 melanoma = system: UACC-257 melanoma
ACHN renal = system: ACHN renal
HOP-62 NSCLC = system: HOP-62 NSCLC

CN1CCN(c2ccc(NC(=O)Nc3ccc4c(ccn4-c4cccc(C(N)=O)n4)c3)cc2C(F)(F)F)CC1
GI50 (SK-MEL-2 melanoma): 5.17 µM
TGI (SK-MEL-2 melanoma): 12.4 µM
GI50 (SW-620 colon): 1.27 µM
TGI (SW-620 colon): 2.91 µM
GI50 (SN12C renal): 8.1 µM
TGI (SN12C renal): 18.5 µM
GI50 (HL-60(TB) leukemia): 5.59 µM
TGI (HL-60(TB) leukemia): 13.5 µM
GI50 (OVCAR-4 ovarian): 8.09 µM
TGI (OVCAR-4 ovarian): 21.9 µM
GI50 (DU-145 prostate): 5.97 µM
TGI (DU-145 prostate): 14.5 µM
GI50 (CCRF-CEM leukemia): 1.4 µM
TGI (CCRF-CEM leukemia): 3.18 µM
GI50 (HCT-116 colon): 0.858 µM
TGI (HCT-116 colon): 1.84 µM
GI50 (RXF 393 renal): 1.06 µM
TGI (RXF 393 renal): 2.5 µM
GI50 (SF-295 CNS): 0.969 µM
TGI (SF-295 CNS): 2.15 µM
GI50 (COLO 205 colon): 5.91 µM
TGI (COLO 205 colon): 15.4 µM
GI50 (SNB-75 CNS): 5.06 µM
TGI (SNB-75 CNS): 11.9 µM
GI50 (A549 NSCLC): 5.2 µM
TGI (A549 NSCLC): 13.3 µM
GI50 (SR leukemia): 0.929 µM
TGI (SR leukemia): 2.48 µM
GI50 (T-47D breast): 9.33 µM
TGI (T-47D breast): 22.8 µM
GI50 (M14 melanoma): 0.991 µM
TGI (M14 melanoma): 2.21 µM
GI50 (SF-539 CNS): 1.92 µM
TGI (SF-539 CNS): 8.07 µM
GI50 (U251 CNS): 1.33 µM
TGI (U251 CNS): 6.64 µM
GI50 (786-0 renal): 0.834 µM
TGI (786-0 renal): 2 µM
GI50 (A498 renal): 7.74 µM
TGI (A498 renal): 14.8 µM
GI50 (OVCAR-3 ovarian): 8.35 µM
TGI (OVCAR-3 ovarian): 16.4 µM
GI50 (SK-MEL-5 melanoma): 0.964 µM
TGI (SK-MEL-5 melanoma): 2.08 µM
GI50 (LOX IMVI melanoma): 0.969 µM
TGI (LOX IMVI melanoma): 2.03 µM
GI50 (K-562 leukemia): 0.938 µM
TGI (K-562 leukemia): 2.17 µM
GI50 (NCI-H522 lung): 10.1 µM
TGI (NCI-H522 lung): 20.8 µM
GI50 (BT-549 breast): 5.21 µM
TGI (BT-549 breast): 12.5 µM
GI50 (SK-OV-3 ovarian): 7.14 µM
TGI (SK-OV-3 ovarian): 13.8 µM
GI50 (PC-3 prostate): 3.34 µM
TGI (PC-3 prostate): 11 µM
GI50 (UO-31 renal): 7.38 µM
TGI (UO-31 renal): 15.6 µM
GI50 (SF-268 CNS): 6.71 µM
TGI (SF-268 CNS): 18 µM
GI50 (MDA-MB-435): 1.13 µM
TGI (MDA-MB-435): 2.82 µM
GI50 (HOP-92 NSCLC): 6.91 µM
TGI (HOP-92 NSCLC): 15.8 µM
GI50 (TK-10 renal): 8.51 µM
TGI (TK-10 renal): 16.3 µM
GI50 (UACC-62 melanoma): 5.65 µM
TGI (UACC-62 melanoma): 13.8 µM
GI50 (OVCAR-5 ovarian): 7.54 µM
TGI (OVCAR-5 ovarian): 17 µM
GI50 (KM12 colon): 2.25 µM
TGI (KM12 colon): 9.23 µM
GI50 (IGROV1 ovarian): 9.04 µM
TGI (IGROV1 ovarian): 20.4 µM
GI50 (NCI-H23 lung): 7.61 µM
TGI (NCI-H23 lung): 19.3 µM
GI50 (HS 578T breast): 2.68 µM
TGI (HS 578T breast): 12.5 µM
GI50 (HCT-15 colon): 1.66 µM
TGI (HCT-15 colon): 7.33 µM
GI50 (MDA-MB-231 breast): 6.53 µM
TGI (MDA-MB-231 breast): 19.1 µM
GI50 (MALME-3M melanoma): 1.37 µM
TGI (MALME-3M melanoma): 3.79 µM
GI50 (MOLT-4 leukemia): 1.02 µM
TGI (MOLT-4 leukemia): 2.24 µM
GI50 (MCF7 breast): 0.878 µM
TGI (MCF7 breast): 2.02 µM
GI50 (NCI-H226 lung): 8.61 µM
TGI (NCI-H226 lung): 20.4 µM
GI50 (CAKI-1 renal): 6.47 µM
TGI (CAKI-1 renal): 13.5 µM
GI50 (HT29 colon): 1.29 µM
TGI (HT29 colon): 5.5 µM
GI50 (SNB-19 CNS): 5.99 µM
TGI (SNB-19 CNS): 16.4 µM
GI50 (SK-MEL-28 melanoma): 0.939 µM
TGI (SK-MEL-28 melanoma): 1.91 µM
GI50 (OVCAR-8 ovarian): 10.1 µM
TGI (OVCAR-8 ovarian): 25.1 µM
GI50 (HCC-2998 colon): 6.28 µM
TGI (HCC-2998 colon): 14 µM
GI50 (RPMI-8226 leukemia): 1.17 µM
TGI (RPMI-8226 leukemia): 2.65 µM
GI50 (NCI-H460 lung): 1.74 µM
TGI (NCI-H460 lung): 5.88 µM
GI50 (EKVX NSCLC): 6.9 µM
TGI (EKVX NSCLC): 16.3 µM
GI50 (NCI/ADR-RES ovarian): 9.47 µM
TGI (NCI/ADR-RES ovarian): 24.2 µM
GI50 (UACC-257 melanoma): 1.11 µM
TGI (UACC-257 melanoma): 2.66 µM
GI50 (ACHN renal): 6.95 µM
TGI (ACHN renal): 14.1 µM
GI50 (HOP-62 NSCLC): 5.89 µM
TGI (HOP-62 NSCLC): 12.9 µM
